Each block holds one compound with its values, some of them ahead of it. Peptide text beside a SMILES is read from it.
Key:
[1] = mouse, in vivo, po, 1000 mg/kg
[2] = mouse, in vivo, po
[3] = test system: HT-22 cells; conditions: 20 mM Glu, 24 h
Procedure: HT-22 cells were cultured in DMEM medium with 10% fetal bovine serum (Gibco), 1% penicillin, and streptomycin (Gibco) at 37 °C. HT-22 cells were seeded at a density of 1 × 10^4 cells per well in 96-well plates and cultured in DMEM medium containing 10% fetal bovine serum and 1% penicillin–streptomycin at 37 °C with 5% CO2.

[4] = design: method as in number not printed ("the literature reports"); conditions: mice; ref number not printed ("the literature reports"); cited from earlier work
[5] = design: method as in number not printed ("It was reported"); conditions: linear dipeptide; ref number not printed ("It was reported"); cited from earlier work
[6] = design: method as in number not printed ("A study in humans"); conditions: humans; ref number not printed ("A study in humans"); cited from earlier work

AUC0–24h [1]: 19.8164 ng·h/mL | C max [1]: 11.0670 ng/mL | T max [1]: 30 min | Peptide signal (feature intensity) in the small intestine, 30 min [2]: 2.06E+05 | Peptide signal (feature intensity) in the small intestine, 60 min [2]: 0.00E+00 | Peptide signal (feature intensity) in the small intestine, 120 min [2]: 2.49E+05 | Peptide signal (feature intensity) in the small intestine, 240 min [2]: 2.18E+05
SMILES: O=C1N[C@@H](Cc2ccccc2)C(=O)N2CCC[C@@H]12 [cyclo(Pro-Phe)]

SMILES: N[C@@H](CCC(=O)O)C(=O)O [Glu, Glutamate]
HT22 cell viability after Glu exposure [3]: 40–60%

SMILES: O=C(O)[C@@H]1C[C@@H](O)CN1C(=O)[C@@H]1CCCN1 [Pro-Hyp] (HELM PEPTIDE1{P.[Hyp]}$$$$V2.0)
time to drop to basal levels [4]: ≤ 3 h

SMILES: NCC(=O)N1CCC[C@H]1C(=O)O [Gly-Pro] (H-Gly-Pro-OH)
time to decrease to a negligible level after oral administration [5]: ≤ 1 h | T max, C max, and AUC0–4h compared with cyclo(Gly-Pro) [6]: lower

— PMC12616683, “In Vivo Atlas of Neuroprotective Cyclic Dipeptides Derived from Food Gelatin Using Peptidomics and Feature-Based Molecular Networking” (Journal of Agricultural and Food Chemistry, 2025)
